{"source": "patent US4748122A", "about": "“2,5-diketo-D-gluconic acid reductase” (Shionogi & Co., Ltd., priority 1983, dated 1988)", "key": {"[1]": {"system": "25DKG-Rase derived from Strain K-106", "assay": "Enzymatic activity of 25DKG-Rase obtained from K-106 (Example 2)", "format": "biochemical, Corynebacterium sp. No. K-106 (ATCC 31,088)", "conditions": "for Enzymatic activity (relative activity): 100 = activity at pH 7, 30° C.", "procedure": "(§1) Two point nine (2.9) ml of 0.1M TB (pH 7) containing 0.3 μmoles of NADPH was placed in a quartz cubette having 1 cm optical length difference and added 1-5 μl of the enzyme solution obtained above (3) thereto. Then, to the mixture, each 0.1 ml of the various substrate solutions (0.1M) were added while being kept at 30° C. Reactivities of the enzyme on the respective substrates were determined, by means of successive measurement of the decrease in absorption at 340 nm, on the basis of the decrease for 1 minute.\n(§2) The measurements of the physico-chemical properties were conducted in a manner as described in Example 1-(4) (5).\n(§3) Enzymatic activities of 25DKG-Rases obtained from K-106 and T-13 were measured at varying pH from 4 to 9 (substrate: Ca-25DKG, reaction temperature: 30° C.).\n(§4) The enzymatic activities of 25DKG-Rases obtained from K-106 and T-13 were measured at varying temperature (pH 7.0, substrate: Ca-25DKG)."}, "[2]": {"target": "T1, 25DKG-Rase (Corynebacterium sp., UniProt P15339)", "T1 construct": "The enzyme is an intracellular enzyme extracted from the cells of the 2KLG producing strain; made in house; host or cells: natural producer Corynebacterium sp; No. 20A-77 mutant FERM-BP 108, enzyme purified from sonicated cells; not recombinant", "T1 sequence (P15339 2-277 limits assumed)": "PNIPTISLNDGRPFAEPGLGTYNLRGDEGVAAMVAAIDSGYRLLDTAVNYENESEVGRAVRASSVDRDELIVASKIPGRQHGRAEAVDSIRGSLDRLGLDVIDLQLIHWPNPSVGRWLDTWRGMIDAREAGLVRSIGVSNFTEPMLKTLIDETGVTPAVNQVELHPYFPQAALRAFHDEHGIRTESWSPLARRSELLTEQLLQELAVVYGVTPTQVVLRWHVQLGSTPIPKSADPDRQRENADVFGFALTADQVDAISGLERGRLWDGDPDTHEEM", "format": "biochemical, Corynebacterium sp. No. 20A-77 mutant (FERM-BP 108)", "conditions": "10 μl enzyme solution, 25 μmoles substrate, 15 μmoles NADPH, 30° C., 60 minutes; gas chromatography"}, "[3]": {"system": "25DKG-Rase derived from Strain T-13", "assay": "Substrate specificity by product formation, enzyme from T-13", "format": "biochemical, Corynebacterium sp. No. T-13 (ATCC 31,089)", "procedure": "(§5) The purified enzyme solution (10 μl) obtained above (3) was mixed with 25 μmoles of a substrate (Ca-25DKG or 5KF) and 3.0 ml of 0.01M TB (pH 7) containing 15 μmoles of NADPH and the mixture was allowed to react at 30° C. for 60 minutes. After the reaction, the reaction mixture was analyzed by paper chromatography (developing solvent; phenol:formic acid:water=75:4:25, chromogenic agent; AHF solution, prepared by dissolving 0.93 g of anilin and 1.66 g of phthalic acid in 100 ml of water-saturated n-butanol and heating at 105° C. for 2 minutes) and by gas chromatography (column; SE-52, carrier gas: Helium, sample; trimethylsilylated derivative). […] In Table 1, the results of quantitative determination of the products by gas chromatography are shown.\nas §2"}, "[4]": {"target": "T1, 25DKG-Rase", "assay": "Spectrophotometric enzymatic activity (decrease in absorption at 340 nm), purified enzyme solution of Example 1", "format": "biochemical, Corynebacterium sp. No. 20A-77 mutant (FERM-BP 108)", "conditions": "for Enzymatic activity: per 1 ml purified enzyme solution"}, "[5]": {"system": "25DKG-Rase derived from Strain K-106", "assay": "Substrate specificity by product formation, enzyme from K-106", "format": "biochemical, Corynebacterium sp. No. K-106 (ATCC 31,088)", "procedure": "as §5, §2"}, "[6]": {"system": "25DKG-Rase derived from Strain T-13", "assay": "Enzymatic activity of 25DKG-Rase obtained from T-13 (Example 2)", "format": "biochemical, Corynebacterium sp. No. T-13 (ATCC 31,089)", "conditions": "for Enzymatic activity (relative activity): 100 = activity at pH 7, 30° C.", "procedure": "as §1, §2, §3, §4"}, "[7]": {"system": "25DKG-Rase derived from Strain T-13", "assay": "Enzymatic activity of 25DKG-Rase obtained from T-13 (Example 2)", "format": "biochemical, Corynebacterium sp. No. T-13 (ATCC 31,089)", "conditions": "enzyme from T-13, coenzyme NADH"}, "[8]": {"system": "25DKG-Rase derived from Strain K-106", "assay": "Enzymatic activity of 25DKG-Rase obtained from K-106 (Example 2)", "format": "biochemical, Corynebacterium sp. No. K-106 (ATCC 31,088)", "conditions": "enzyme from K-106, coenzyme NADH"}}}
{"smiles": "O=C(O)C(=O)[C@@H](O)[C@H](O)C(=O)CO", "note": "[Ca-25DKG]", "values": [{"measurement": "Enzymatic activity (relative activity)", "setting": "[1]; K-106, 22 °C., pH 7.0", "result": 46}, {"measurement": "Enzymatic activity (relative activity)", "setting": "[1]; K-106, 25 °C., pH 7.0", "result": 69}, {"measurement": "Enzymatic activity (relative activity)", "setting": "[1]; K-106, 28 °C., pH 7.0", "result": 86}, {"measurement": "Enzymatic activity (relative activity)", "setting": "[1]; K-106, 30 °C., pH 7.0", "result": 100}, {"measurement": "Enzymatic activity (relative activity)", "setting": "[1]; K-106, 35 °C., pH 7.0", "result": 115}, {"measurement": "Enzymatic activity (relative activity)", "setting": "[1]; K-106, 40 °C., pH 7.0", "result": 119}, {"measurement": "Enzymatic activity (relative activity)", "setting": "[1]; K-106, 45 °C., pH 7.0", "result": 93}, {"measurement": "Enzymatic activity (relative activity)", "setting": "[1]; K-106, 50 °C., pH 7.0", "result": 44}, {"measurement": "Enzymatic activity (relative activity)", "setting": "[1]; K-106, pH 4.0, 30° C.", "result": 1}, {"measurement": "Enzymatic activity (relative activity)", "setting": "[1]; K-106, pH 5.0, 30° C.", "result": 48}, {"measurement": "Enzymatic activity (relative activity)", "setting": "[1]; K-106, pH 6.0, 30° C.", "result": 103}, {"measurement": "Enzymatic activity (relative activity)", "setting": "[1]; K-106, pH 7.0, 30° C.", "result": 100}, {"measurement": "Enzymatic activity (relative activity)", "setting": "[1]; K-106, pH 8.0, 30° C.", "result": 70}, {"measurement": "Enzymatic activity (relative activity)", "setting": "[1]; K-106, pH 9.0, 30° C.", "result": 6}, {"measurement": "Enzymatic activity per protein", "setting": "[1]; enzyme from Strain K-106, NADPH", "result": 95, "unit": "units/mg protein"}, {"measurement": "Enzymatic activity", "setting": "[1]; enzyme from Strain K-106, purified enzyme solution, NADPH", "result": 23.8, "unit": "units/ml"}, {"measurement": "Concentration of the product", "setting": "[2]", "result": 845, "unit": "µg/mL"}, {"measurement": "product formed (substrate specificity)", "setting": "[3]", "result": "produced only Ca-2KLG"}, {"measurement": "Enzymatic activity", "setting": "[4]; 15 °C., pH 7", "result": 14, "unit": "unit/ml"}, {"measurement": "Enzymatic activity", "setting": "[4]; 25 °C., pH 7", "result": 29, "unit": "unit/ml"}, {"measurement": "Enzymatic activity", "setting": "[4]; 27.5 °C., pH 7", "result": 44, "unit": "unit/ml"}, {"measurement": "Enzymatic activity", "setting": "[4]; 30 °C., pH 7", "result": 54, "unit": "unit/ml"}, {"measurement": "Enzymatic activity", "setting": "[4]; 32.5 °C., pH 7", "result": 59, "unit": "unit/ml"}, {"measurement": "Enzymatic activity", "setting": "[4]; 35 °C., pH 7", "result": 64, "unit": "unit/ml"}, {"measurement": "Enzymatic activity", "setting": "[4]; 40 °C., pH 7", "result": 67, "unit": "unit/ml"}, {"measurement": "Enzymatic activity", "setting": "[4]; 45 °C., pH 7", "result": 44, "unit": "unit/ml"}, {"measurement": "Enzymatic activity", "setting": "[4]; 50 °C., pH 7", "result": 10, "unit": "unit/ml"}, {"measurement": "Activity of the purified enzyme solution (1 ml)", "setting": "[4]; NADPH, 0.1M TB pH 7, 30° C.", "result": 54, "unit": "units"}, {"measurement": "Enzymatic activity", "setting": "[4]; pH 4.0, 3,3-dimethylglutaric acid buffer", "result": 1, "unit": "unit/ml"}, {"measurement": "Enzymatic activity", "setting": "[4]; pH 5.0, 3,3-dimethylglutaric acid buffer", "result": 22, "unit": "unit/ml"}, {"measurement": "Enzymatic activity", "setting": "[4]; pH 6.0, Good (PIPES) buffer", "result": 59, "unit": "unit/ml"}, {"measurement": "Enzymatic activity", "setting": "[4]; pH 6.5, Good (PIPES) buffer", "result": 57, "unit": "unit/ml"}, {"measurement": "Enzymatic activity", "setting": "[4]; pH 7.0, Good (PIPES) buffer", "result": 53, "unit": "unit/ml"}, {"measurement": "Enzymatic activity", "setting": "[4]; pH 7.0, Tris buffer", "result": 54, "unit": "unit/ml"}, {"measurement": "Enzymatic activity", "setting": "[4]; pH 7.5, Tris buffer", "result": 44, "unit": "unit/ml"}, {"measurement": "Enzymatic activity", "setting": "[4]; pH 8.0, Tris buffer", "result": 32, "unit": "unit/ml"}, {"measurement": "Enzymatic activity", "setting": "[4]; pH 8.5, Tris buffer", "result": 11, "unit": "unit/ml"}, {"measurement": "Enzymatic activity", "setting": "[4]; pH 9.0, Tris buffer", "result": 7, "unit": "unit/ml"}, {"measurement": "product formed (substrate specificity)", "setting": "[5]", "result": "produced only Ca-2KLG"}, {"measurement": "Enzymatic activity (relative activity)", "setting": "[6]; T-13, 22 °C., pH 7.0", "result": 64}, {"measurement": "Enzymatic activity (relative activity)", "setting": "[6]; T-13, 25 °C., pH 7.0", "result": 79}, {"measurement": "Enzymatic activity (relative activity)", "setting": "[6]; T-13, 28 °C., pH 7.0", "result": 92}, {"measurement": "Enzymatic activity (relative activity)", "setting": "[6]; T-13, 30 °C., pH 7.0", "result": 100}, {"measurement": "Enzymatic activity (relative activity)", "setting": "[6]; T-13, 35 °C., pH 7.0", "result": 115}, {"measurement": "Enzymatic activity (relative activity)", "setting": "[6]; T-13, 40 °C., pH 7.0", "result": 133}, {"measurement": "Enzymatic activity (relative activity)", "setting": "[6]; T-13, 45 °C., pH 7.0", "result": 128}, {"measurement": "Enzymatic activity (relative activity)", "setting": "[6]; T-13, 50 °C., pH 7.0", "result": 92}, {"measurement": "Enzymatic activity (relative activity)", "setting": "[6]; T-13, pH 4.0, 30° C.", "result": 1}, {"measurement": "Enzymatic activity (relative activity)", "setting": "[6]; T-13, pH 5.0, 30° C.", "result": 65}, {"measurement": "Enzymatic activity (relative activity)", "setting": "[6]; T-13, pH 6.0, 30° C.", "result": 104}, {"measurement": "Enzymatic activity (relative activity)", "setting": "[6]; T-13, pH 7.0, 30° C.", "result": 100}, {"measurement": "Enzymatic activity (relative activity)", "setting": "[6]; T-13, pH 8.0, 30° C.", "result": 64}, {"measurement": "Enzymatic activity (relative activity)", "setting": "[6]; T-13, pH 9.0, 30° C.", "result": 19}, {"measurement": "Enzymatic activity per protein", "setting": "[6]; enzyme from Strain T-13, NADPH", "result": 89, "unit": "units/mg protein"}, {"measurement": "Enzymatic activity", "setting": "[6]; enzyme from Strain T-13, purified enzyme solution, NADPH", "result": 15.1, "unit": "units/ml"}, {"measurement": "enzymatic activity using NADH as the coenzyme", "setting": "[7]", "result": "≤ 0.1", "unit": "unit/ml"}, {"measurement": "enzymatic activity using NADH as the coenzyme", "setting": "[8]", "result": "≤ 0.1", "unit": "unit/ml"}]}
